US6783541B2, “Methods for inhibiting or suppressing stenosis of arteriovenous access fistulas and grafts” (Miravant Medical Technologies, Inc., priority 2001, dated 2004)

Key:
[1] = tested on: stenosis in a canine model of prosthetic AV access graft; experiment: PDT in a canine model of prosthetic AV access graft; assay type: in vivo, female mongrel dogs
Method: The work described below was undertaken to evaluate the effects of application of an embodiment of the method of the present invention on the suppression of stenosis in a canine model of prosthetic AV access graft.
Initial studies using light-treatment without MV6401 confirmed no effect on the stenosis. Bilateral femoral PTFE AV access grafts were implanted in four female mongrel dogs. MV6401 (2 mg/kg, IV) was given one hour prior to the operation, and PDT was administered using an endolumenal non-thermal balloon catheter light source immediately after AV access graft placement. The contralateral side received a sham balloon treatment without light activation. The animals were sacrificed four weeks after the treatment, at which time the grafts were harvested, sectioned and examined by histology. Venous anastomotic sites were graded by an individual blinded to the treatment parameters and graded on a categorical scale (0-5) of lesion progression. Thickness of the stenotic lesion was determined using computer morphometry.

[2] = Preliminary uptake studies by HPLC and fluorescence microscopy

- long term detrimental effects ([1]; PDT dose sufficient to substantially deplete cell population in vessel wall): no detrimental long term effects noted
SMILES: C=Cc1c(C)c2[n]3c1=CC1=NC(=Cc4c(C)c5c([n]4[In]3[Cl])C(=C3N=C(C=2)[C@@H](C)[C@@H]3CCC(=O)OC)CC5=O)C(CC)=C1C [MV6401]
- graft fibrosis grade at venous anastomotic site (categorical scale 0-5) ([1]; MV6401 2 mg/kg IV 1 h before operation, endolumenal balloon light, 4 weeks after treatment, sham side without light 2.25±0.08, P=0.02): 1.13±0.15
- thickness of the stenotic lesions at the venous anastomosis ([1]; MV6401 2 mg/kg IV plus light, 4 weeks after PDT, computer morphometry, sham side without light 1.51±0.11 mm, P=0.006): 0.49±0.06 mm
- acellularity in the vessel wall ([1]; PDT dose used (MV6401 2 mg/kg IV plus light)): substantial acellularity in the vessel wall
- AV access graft patency ([1]; four weeks after treatment): patent and fully functioning
- incorporation of drug into tissue [2]: incorporation into stenotic lesions and surrounding vessel wall
